Test results reported in ChEMBL document CHEMBL1155237, “Selective inhibitors of the mutant B-Raf pathway: discovery of a potent and orally bioavailable aminoisoquinoline” (J Med Chem, 2009).

Key:
[1] = target: Myosin-IIIa (Homo sapiens) (UniProt Q8NEV4); assay: Inhibition of MYO3A assessed as enzyme activity at 1 uM relative to untreated control; design: scale not given: the % may be the effect or the level left
[2] = target: Insulin receptor (Homo sapiens) (UniProt P06213); assay: Inhibition of INSR assessed as enzyme activity at 1 uM relative to untreated control; design: scale not given: the % may be the effect or the level left
[3] = tested on: Receptor-type tyrosine-protein kinase FLT3 (Homo sapiens), P36888 [D835H]; assay: Inhibition of FLT3 D835H mutant assessed as enzyme activity at 1 uM relative to untreated control; design: scale not given: the % may be the effect or the level left
[4] = target: Cyclin-G-associated kinase (Homo sapiens) (UniProt O14976); assay: Inhibition of GAK assessed as enzyme activity at 1 uM relative to untreated control; design: scale not given: the % may be the effect or the level left
[5] = target: Dual specificity mitogen-activated protein kinase kinase 4 (Homo sapiens) (UniProt P45985); assay: Inhibition of MEK4 assessed as enzyme activity at 1 uM relative to untreated control; design: scale not given: the % may be the effect or the level left
[6] = target: Tyrosine-protein kinase Mer (Homo sapiens) (UniProt Q12866); assay: Inhibition of MERTK assessed as enzyme activity at 1 uM relative to untreated control; design: scale not given: the % may be the effect or the level left
[7] = target: Bone morphogenetic protein receptor type-1B (Homo sapiens) (UniProt O00238); assay: Inhibition of BMPR1B assessed as enzyme activity at 1 uM relative to untreated control; design: scale not given: the % may be the effect or the level left
[8] = target: Mitogen-activated protein kinase kinase kinase 3 (Homo sapiens) (UniProt Q99759); assay: Inhibition of MAP3K3 assessed as enzyme activity at 1 uM relative to untreated control; design: scale not given: the % may be the effect or the level left
[9] = target: Serine/threonine-protein kinase PAK 3 (Homo sapiens) (UniProt O75914); assay: Inhibition of PAK3 assessed as enzyme activity at 1 uM relative to untreated control; design: scale not given: the % may be the effect or the level left
[10] = target: cAMP-dependent protein kinase catalytic subunit PRKX (Homo sapiens) (UniProt P51817); assay: Inhibition of PRKX assessed as enzyme activity at 1 uM relative to untreated control; design: scale not given: the % may be the effect or the level left
[11] = target: Misshapen-like kinase 1 (Homo sapiens) (UniProt Q8N4C8); assay: Inhibition of MINK assessed as enzyme activity at 1 uM relative to untreated control; design: scale not given: the % may be the effect or the level left
[12] = target: Mitogen-activated protein kinase kinase kinase 20 (Homo sapiens) (UniProt Q9NYL2); assay: Inhibition of ZAK assessed as enzyme activity at 1 uM relative to untreated control; design: scale not given: the % may be the effect or the level left
[13] = target: Tyrosine-protein kinase JAK1 (Homo sapiens) (UniProt P23458); assay: Inhibition of JAK1 kinase domain 1 assessed as enzyme activity at 1 uM relative to untreated control; design: scale not given: the % may be the effect or the level left
[14] = target: Non-receptor tyrosine-protein kinase TNK1 (Homo sapiens) (UniProt Q13470); assay: Inhibition of TNK1 assessed as enzyme activity at 1 uM relative to untreated control; design: scale not given: the % may be the effect or the level left
[15] = target: Serine/threonine-protein kinase TNNI3K (Homo sapiens) (UniProt Q59H18); assay: Inhibition of TNNI3K assessed as enzyme activity at 1 uM relative to untreated control; design: scale not given: the % may be the effect or the level left
[16] = target: Mitogen-activated protein kinase kinase kinase 4 (Homo sapiens) (UniProt Q9Y6R4); assay: Inhibition of MAP3K4 assessed as enzyme activity at 1 uM relative to untreated control; design: scale not given: the % may be the effect or the level left
[17] = target: Fibroblast growth factor receptor 1 (Homo sapiens) (UniProt P11362); assay: Inhibition of FGFR1 assessed as enzyme activity at 1 uM relative to untreated control; design: scale not given: the % may be the effect or the level left
[18] = target: Dual specificity testis-specific protein kinase 1 (Homo sapiens) (UniProt Q15569); assay: Inhibition of TESK1 assessed as enzyme activity at 1 uM relative to untreated control; design: scale not given: the % may be the effect or the level left
Mus musculus = assay: Inhibition of ERK phosphorylation in human A375 SQ2 cells xenografted CD1 mouse at 5 mg/kg, po qd after 6 hrs; format: functional; details: CD1, A375-SQ2, 6 h
[19] = target: Ephrin type-A receptor 3 (Homo sapiens) (UniProt P29320); assay: Inhibition of EPHA3 assessed as enzyme activity at 1 uM relative to untreated control; design: scale not given: the % may be the effect or the level left
[20] = target: Cyclin-dependent kinase 15 (Homo sapiens) (UniProt Q96Q40); assay: Inhibition of PFTAIRE2 assessed as enzyme activity at 1 uM relative to untreated control; design: scale not given: the % may be the effect or the level left
[21] = Clearance in CD1 mouse; format: ADME, organism-based; details: in vivo
[22] = target: Ephrin type-A receptor 5 (Homo sapiens) (UniProt P54756); assay: Inhibition of EPHA5 assessed as enzyme activity at 1 uM relative to untreated control; design: scale not given: the % may be the effect or the level left
[23] = target: Ephrin type-A receptor 4 (Homo sapiens) (UniProt P54764); assay: Inhibition of EPHA4 assessed as enzyme activity at 1 uM relative to untreated control; design: scale not given: the % may be the effect or the level left
[24] = tested on: Epidermal growth factor receptor (Homo sapiens), P00533 [G719C]; assay: Inhibition of EGFR G719C mutant assessed as enzyme activity at 1 uM relative to untreated control; format: protein assay; design: scale not given: the % may be the effect or the level left
[25] = target: Serine/threonine-protein kinase RIO3 (Homo sapiens) (UniProt O14730); assay: Inhibition of RIOK3 assessed as enzyme activity at 1 uM relative to untreated control; design: scale not given: the % may be the effect or the level left
[26] = target: Homeodomain-interacting protein kinase 1 (Homo sapiens) (UniProt Q86Z02); assay: Inhibition of HIPK1 assessed as enzyme activity at 1 uM relative to untreated control; design: scale not given: the % may be the effect or the level left
[27] = target: Insulin-like growth factor 1 receptor (Homo sapiens) (UniProt P08069); assay: Inhibition of IGF1R assessed as enzyme activity at 1 uM relative to untreated control; design: scale not given: the % may be the effect or the level left
[28] = Oral bioavailability in Sprague-Dawley rat at 5 mg/kg; format: ADME, organism-based; details: in vivo
[29] = target: Citron Rho-interacting kinase (Homo sapiens) (UniProt O14578); assay: Inhibition of CIT assessed as enzyme activity at 1 uM relative to untreated control; design: scale not given: the % may be the effect or the level left
[30] = target: Serine/threonine-protein kinase Chk1 (Homo sapiens) (UniProt O14757); assay: Inhibition of CHEK1 assessed as enzyme activity at 1 uM relative to untreated control; design: scale not given: the % may be the effect or the level left
[31] = target: NT-3 growth factor receptor (Homo sapiens) (UniProt Q16288); assay: Inhibition of TRKC assessed as enzyme activity at 1 uM relative to untreated control; design: scale not given: the % may be the effect or the level left
[32] = tested on: Epidermal growth factor receptor (Homo sapiens), P00533 [L861Q]; assay: Inhibition of EGFR L861Q mutant assessed as enzyme activity at 1 uM relative to untreated control; format: protein assay; design: scale not given: the % may be the effect or the level left
[33] = target: Epidermal growth factor receptor (Homo sapiens) (UniProt P00533); assay: Inhibition of EGFR assessed as enzyme activity at 1 uM relative to untreated control; design: scale not given: the % may be the effect or the level left
[34] = target: Mitogen-activated protein kinase 6 (Homo sapiens) (UniProt Q16659); assay: Inhibition of ERK3 assessed as enzyme activity at 1 uM relative to untreated control; design: scale not given: the % may be the effect or the level left
[35] = target: Serine/threonine-protein kinase NLK (Homo sapiens) (UniProt Q9UBE8); assay: Inhibition of NLK assessed as enzyme activity at 1 uM relative to untreated control; design: scale not given: the % may be the effect or the level left
[36] = tested on: eIF-2-alpha kinase GCN2 (Homo sapiens), Q9P2K8 [S808G]; assay: Inhibition of GCN2 kinase domain-2 S808G mutant assessed as enzyme activity at 1 uM relative to untreated control; design: scale not given: the % may be the effect or the level left
[37] = target: Calcium/calmodulin-dependent protein kinase type 1 (Homo sapiens) (UniProt Q14012); assay: Inhibition of CAMK1 assessed as enzyme activity at 1 uM relative to untreated control; design: scale not given: the % may be the effect or the level left

Chain of Mitogen-activated protein kinase kinase kinase 20 (Homo sapiens) (Q9NYL2 2-800 limits assumed): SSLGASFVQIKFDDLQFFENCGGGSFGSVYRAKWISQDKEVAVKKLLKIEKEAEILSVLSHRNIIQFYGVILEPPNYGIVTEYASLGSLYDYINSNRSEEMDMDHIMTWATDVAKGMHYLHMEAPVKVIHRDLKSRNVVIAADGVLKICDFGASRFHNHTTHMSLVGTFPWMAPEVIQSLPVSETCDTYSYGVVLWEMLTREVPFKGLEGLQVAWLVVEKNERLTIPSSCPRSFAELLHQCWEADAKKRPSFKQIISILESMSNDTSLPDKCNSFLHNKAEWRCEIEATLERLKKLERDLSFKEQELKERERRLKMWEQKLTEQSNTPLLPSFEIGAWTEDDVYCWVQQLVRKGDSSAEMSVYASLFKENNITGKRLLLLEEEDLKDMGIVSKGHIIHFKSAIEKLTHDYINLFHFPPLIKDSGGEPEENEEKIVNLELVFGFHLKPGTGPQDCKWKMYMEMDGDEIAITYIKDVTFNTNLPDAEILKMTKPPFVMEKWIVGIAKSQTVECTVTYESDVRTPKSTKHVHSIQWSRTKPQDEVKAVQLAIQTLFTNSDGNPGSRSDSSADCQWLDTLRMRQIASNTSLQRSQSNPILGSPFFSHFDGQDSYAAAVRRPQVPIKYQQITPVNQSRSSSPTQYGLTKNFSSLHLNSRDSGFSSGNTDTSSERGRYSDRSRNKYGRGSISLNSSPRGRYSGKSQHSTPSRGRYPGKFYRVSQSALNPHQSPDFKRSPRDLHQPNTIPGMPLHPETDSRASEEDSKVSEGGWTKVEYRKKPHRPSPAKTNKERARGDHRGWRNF
Chain of Serine/threonine-protein kinase TNNI3K (Homo sapiens) (Q59H18 whole entry): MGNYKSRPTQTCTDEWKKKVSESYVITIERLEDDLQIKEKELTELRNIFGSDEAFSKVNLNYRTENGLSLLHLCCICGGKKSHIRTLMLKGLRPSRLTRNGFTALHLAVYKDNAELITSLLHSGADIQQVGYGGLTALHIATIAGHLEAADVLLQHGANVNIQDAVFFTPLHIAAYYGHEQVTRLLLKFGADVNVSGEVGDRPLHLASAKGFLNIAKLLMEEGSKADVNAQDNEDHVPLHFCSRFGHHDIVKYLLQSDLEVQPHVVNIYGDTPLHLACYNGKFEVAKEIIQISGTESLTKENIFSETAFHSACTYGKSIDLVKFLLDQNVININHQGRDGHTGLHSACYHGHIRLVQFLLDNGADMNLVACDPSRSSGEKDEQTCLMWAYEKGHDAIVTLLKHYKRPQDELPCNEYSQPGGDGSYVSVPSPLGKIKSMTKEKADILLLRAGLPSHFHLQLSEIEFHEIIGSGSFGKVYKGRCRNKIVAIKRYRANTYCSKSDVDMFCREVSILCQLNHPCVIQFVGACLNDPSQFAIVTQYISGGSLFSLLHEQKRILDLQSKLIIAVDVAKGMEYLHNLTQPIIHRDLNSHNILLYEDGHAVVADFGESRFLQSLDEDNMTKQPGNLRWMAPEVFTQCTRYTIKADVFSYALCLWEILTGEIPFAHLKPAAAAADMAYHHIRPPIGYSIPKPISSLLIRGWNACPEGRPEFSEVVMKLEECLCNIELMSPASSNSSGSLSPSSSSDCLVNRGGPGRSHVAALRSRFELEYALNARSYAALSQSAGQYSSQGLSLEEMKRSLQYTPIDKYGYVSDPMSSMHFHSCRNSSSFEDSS
Chain of Tyrosine-protein kinase JAK1 (Homo sapiens) (P23458 whole entry, the tested form may be a part): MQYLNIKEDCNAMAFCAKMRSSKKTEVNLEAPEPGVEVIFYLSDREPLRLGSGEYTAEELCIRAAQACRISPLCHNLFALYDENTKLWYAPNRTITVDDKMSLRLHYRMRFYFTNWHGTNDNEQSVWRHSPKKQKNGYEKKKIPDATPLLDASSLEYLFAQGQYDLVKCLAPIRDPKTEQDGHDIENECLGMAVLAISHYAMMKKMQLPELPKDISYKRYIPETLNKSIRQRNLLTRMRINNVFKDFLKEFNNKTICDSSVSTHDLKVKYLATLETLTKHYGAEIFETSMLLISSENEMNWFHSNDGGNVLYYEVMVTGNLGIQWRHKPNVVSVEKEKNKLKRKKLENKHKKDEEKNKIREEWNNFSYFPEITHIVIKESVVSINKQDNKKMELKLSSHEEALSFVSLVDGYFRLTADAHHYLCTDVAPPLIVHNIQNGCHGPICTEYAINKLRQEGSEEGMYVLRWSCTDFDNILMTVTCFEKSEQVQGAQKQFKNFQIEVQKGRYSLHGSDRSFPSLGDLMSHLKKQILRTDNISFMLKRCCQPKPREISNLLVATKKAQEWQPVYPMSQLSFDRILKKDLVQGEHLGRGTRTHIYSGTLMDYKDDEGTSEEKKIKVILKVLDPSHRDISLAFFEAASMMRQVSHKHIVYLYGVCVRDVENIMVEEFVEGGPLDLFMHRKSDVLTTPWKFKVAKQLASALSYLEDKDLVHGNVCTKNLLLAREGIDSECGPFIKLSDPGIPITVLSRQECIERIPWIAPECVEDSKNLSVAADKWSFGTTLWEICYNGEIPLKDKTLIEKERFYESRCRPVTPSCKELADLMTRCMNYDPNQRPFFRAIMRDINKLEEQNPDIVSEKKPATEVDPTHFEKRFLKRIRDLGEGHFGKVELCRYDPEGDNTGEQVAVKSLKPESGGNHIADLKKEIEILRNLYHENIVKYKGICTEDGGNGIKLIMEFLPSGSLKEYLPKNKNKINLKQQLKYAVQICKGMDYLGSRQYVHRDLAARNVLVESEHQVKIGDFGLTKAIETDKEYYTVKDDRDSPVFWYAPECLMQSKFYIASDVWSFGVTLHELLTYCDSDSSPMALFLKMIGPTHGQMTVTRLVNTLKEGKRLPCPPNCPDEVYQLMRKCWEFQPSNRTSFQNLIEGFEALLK
Chain of Serine/threonine-protein kinase RIO3 (Homo sapiens) (O14730 whole entry): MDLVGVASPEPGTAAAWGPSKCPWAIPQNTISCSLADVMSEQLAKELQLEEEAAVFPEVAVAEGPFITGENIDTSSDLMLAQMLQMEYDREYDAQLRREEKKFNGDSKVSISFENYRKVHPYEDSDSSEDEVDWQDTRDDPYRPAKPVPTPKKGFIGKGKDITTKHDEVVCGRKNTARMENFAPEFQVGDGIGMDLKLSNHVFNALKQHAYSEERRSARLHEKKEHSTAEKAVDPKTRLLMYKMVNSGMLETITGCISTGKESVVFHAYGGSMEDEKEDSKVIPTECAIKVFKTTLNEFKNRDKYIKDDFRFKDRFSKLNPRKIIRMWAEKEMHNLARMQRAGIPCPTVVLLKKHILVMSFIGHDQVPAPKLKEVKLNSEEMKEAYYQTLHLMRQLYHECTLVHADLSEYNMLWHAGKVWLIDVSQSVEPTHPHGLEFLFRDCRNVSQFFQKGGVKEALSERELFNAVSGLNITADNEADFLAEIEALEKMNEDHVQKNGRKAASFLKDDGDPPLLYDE
Chain of Myosin-IIIa (Homo sapiens) (Q8NEV4 whole entry): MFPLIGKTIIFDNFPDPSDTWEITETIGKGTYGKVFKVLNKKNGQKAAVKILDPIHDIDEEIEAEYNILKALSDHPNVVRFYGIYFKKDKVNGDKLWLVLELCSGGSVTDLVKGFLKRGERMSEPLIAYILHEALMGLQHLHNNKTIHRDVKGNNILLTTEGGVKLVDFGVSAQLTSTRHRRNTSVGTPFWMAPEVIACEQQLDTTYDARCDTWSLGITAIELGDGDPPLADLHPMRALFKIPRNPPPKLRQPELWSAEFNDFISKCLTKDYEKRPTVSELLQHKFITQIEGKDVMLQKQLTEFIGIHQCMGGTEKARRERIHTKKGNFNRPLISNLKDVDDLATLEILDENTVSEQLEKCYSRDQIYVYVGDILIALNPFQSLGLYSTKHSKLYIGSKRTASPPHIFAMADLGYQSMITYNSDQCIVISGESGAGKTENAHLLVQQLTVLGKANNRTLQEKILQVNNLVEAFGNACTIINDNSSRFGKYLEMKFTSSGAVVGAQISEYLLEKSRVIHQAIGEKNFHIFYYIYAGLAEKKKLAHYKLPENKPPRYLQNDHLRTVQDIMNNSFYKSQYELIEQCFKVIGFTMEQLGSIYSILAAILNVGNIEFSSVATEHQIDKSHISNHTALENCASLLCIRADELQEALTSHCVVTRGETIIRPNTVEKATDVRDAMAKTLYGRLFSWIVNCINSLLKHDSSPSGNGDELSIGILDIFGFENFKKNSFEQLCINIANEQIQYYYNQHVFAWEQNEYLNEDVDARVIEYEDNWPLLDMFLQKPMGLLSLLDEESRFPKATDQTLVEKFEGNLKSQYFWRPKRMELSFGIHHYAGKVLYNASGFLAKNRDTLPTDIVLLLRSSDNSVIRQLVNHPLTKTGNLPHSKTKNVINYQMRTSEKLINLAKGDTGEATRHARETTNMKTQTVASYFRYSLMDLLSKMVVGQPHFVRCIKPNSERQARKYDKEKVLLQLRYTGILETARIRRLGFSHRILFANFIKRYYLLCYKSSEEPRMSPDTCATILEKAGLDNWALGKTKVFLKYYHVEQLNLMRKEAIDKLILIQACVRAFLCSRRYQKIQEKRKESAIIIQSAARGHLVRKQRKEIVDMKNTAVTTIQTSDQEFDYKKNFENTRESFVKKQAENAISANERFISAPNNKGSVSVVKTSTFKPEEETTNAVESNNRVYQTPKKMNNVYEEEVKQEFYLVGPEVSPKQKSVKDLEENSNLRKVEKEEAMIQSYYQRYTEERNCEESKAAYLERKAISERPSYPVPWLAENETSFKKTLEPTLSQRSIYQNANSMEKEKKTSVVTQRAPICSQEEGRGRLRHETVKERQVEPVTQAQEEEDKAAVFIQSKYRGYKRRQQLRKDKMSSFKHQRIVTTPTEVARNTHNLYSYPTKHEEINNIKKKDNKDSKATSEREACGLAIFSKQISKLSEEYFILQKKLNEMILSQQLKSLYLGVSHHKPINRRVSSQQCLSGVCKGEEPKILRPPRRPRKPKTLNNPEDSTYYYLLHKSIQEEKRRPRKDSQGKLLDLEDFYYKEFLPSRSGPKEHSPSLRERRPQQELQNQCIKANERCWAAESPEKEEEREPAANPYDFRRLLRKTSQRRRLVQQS

SMILES: Cc1ccc2c(Nc3ccc(Cl)cc3)nccc2c1Nc1ncccc1-c1ncnc2[nH]cnc12.Cl.Cl.Cl
- Activity [1]: 99%
- Activity [2]: 86%
- Activity [3]: 99%
- Activity [4]: 92%
- Activity [5]: 93%
- Activity [6]: 99%
- Activity [7]: 96%
- Activity [8]: 40%
- Activity [9]: 87%
- Activity [10]: 65%
- Activity [11]: 80%
- Activity [12]: 87%
- Activity [13]: 98%
- Activity [14]: 100%
- Activity [15]: 21%
- Activity [16]: 100%
- Activity [17]: 80%
- Activity [18]: 21%
- inhibition in vivo at 5 mg/kg (Mus musculus): 77%
- Activity [19]: 74%
- Activity [20]: 80%
- clearance [21]: 3.17 mL/min
- Activity [22]: 16%
- Activity [23]: 22%
- Activity [24]: 92%
- Activity [25]: 77%
- Activity [26]: 99%
- Activity [27]: 94%
- bioavailability [28]: 80%
- Activity [29]: 64%
- Activity [30]: 100%
- Activity [31]: 2.2%
- Activity [32]: 86%
- Activity [33]: 100%
- Activity [34]: 98%
- Activity [35]: 83%
- Activity [36]: 100%
- Activity [37]: 100%
